# According to PubChem BioAssay AID2610 (Broad Institute, 2010):
# Results filed as inconclusive are left out. The source made the active and inactive calls.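 How the source made its calls: active means EC50 no more than tenfold above the top concentration tested, with valid fit and all samples agreeing; inconclusive means flat fit at 30 to 70% inhibition, poor fit, or split samples; inactive means EC50 beyond tenfold the top concentration tested.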
# Test system: BJeLR fibroblast viability, Alamar Blue fluorescence, 48 h
# Experiment: cytotoxicity toward RAS-transformed BJeLR fibroblasts, dose response, cell-based, alamar blue fluorescence, 48 h, cherrypicked samples (AID 2610);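 further: BJ fibroblasts with hTERT plus SV40 large and small T and HRAS V12; EC50 for loss of viable cells so potency reflects cytotoxic compounds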
row,Structure (SMILES),EC50
1,COc1ccc(N(C(=O)CCl)C(C(=O)NCCc2ccccc2)c2cccs2)cc1Cl (configuration not stated),< 50.2 nM
2,Cc1ccc(N(C(=O)CCl)C(C(=O)NC2CCCCC2)c2cccnc2)cc1C (configuration not stated),< 89.2 nM
3,COc1ccc(C[C@H]2NC[C@H](O)[C@H]2OC(C)=O)cc1,< 64.7 nM
4,Cc1ccc(/C=C2\SC(=S)N(CCCC(=O)N3CCOCC3)C2=O)cc1,3580 nM
5,Cc1cccc2cc(C#N)c(SCC(=O)N3CC(=O)Nc4ccccc43)nc12,< 104 nM
6,Cc1sc2ncnc(N/N=C/c3ccccc3O)c2c1C,3700 nM
7,O=C(N/N=C/c1cccnc1)c1ccc(NC(=O)C(c2ccccc2)c2ccccc2)cc1,344 nM
8,COc1ccc(-c2nnc(NC(=O)c3ccc(S(=O)(=O)N4CCc5ccccc5C4)cc3)o2)cc1,2600 nM
9,O=C(NCc1cccnc1)c1ccc(NC(=O)c2ccc([N+](=O)[O-])cc2)cc1,1420 nM
10,C[C@]12CCC3C(CCC4=CC(O)CC[C@@]43/C=N/O)C1(O)CCC2C1=CC(=O)OC1 (some centres not stated),294 nM
11,COc1cccc2c1C(=O)c1c(O)c3c(c(O)c1C2=O)C[C@@](O)(C(=O)CO)C[C@@H]3O[C@H]1C[C@H](N)[C@H](O)[C@H](C)O1,< 104 nM
12,COc1ccc(-c2coc3cc4oc(=O)c5ccccc5c4cc23)cc1F,< 104 nM
13,CC[C@@]1(O)C(=O)OCc2c1cc1n(c2=O)Cc2cc3c(CN(C)C)c(O)ccc3nc2-1,< 39.2 nM
14,O=C1/C(=C/c2ccncc2)CCC/C1=C\c1ccncc1,539 nM
15,CC(=O)Nc1ccc(/C=N/Nc2nc3ccccc3[nH]2)cc1,> 13300 nM (inactive)
16,Cc1nc(N)nc(N)c1/C=C/C(C)(C)c1ccc(Cl)cc1,> 13300 nM (inactive)
17,COc1ccc(C)cc1NS(=O)(=O)c1ccc(-c2cnc(C3CC3)o2)cc1,< 104 nM
18,O=C(CCl)N=c1sccn1Cc1ccccc1Cl,< 88.2 nM
19,CCN(CC)c1ccc(/C=N/NC(=O)c2nnn(-c3nonc3N)c2C(C)C)c(O)c1,565 nM
20,COc1ccc(N/N=C(/N=Nc2nc(C)cc(=O)[nH]2)c2ccccc2)cc1,446 nM
21,O=C(NCCCn1ccnc1)c1ccc(N2CCCCCC2)c([N+](=O)[O-])c1,6680 nM

row,Structure (SMILES),EC50
1,Cn1cnc(Sc2ncnc3nc[nH]c23)c1[N+](=O)[O-],> 13300 nM (inactive)
2,Oc1ccc(/C=N/Nc2nccnc2Cl)c(O)c1,6750 nM
3,COc1cc(SC)ccc1C(=O)Nc1nc2ccccc2[nH]1,> 13300 nM (inactive)
4,COc1cccc2c1C(=O)c1c(O)c3c(c(O)c1C2=O)C[C@@](O)(C(=O)CO)C[C@@H]3O[C@H]1C[C@H](N)[C@@H](O)[C@H](C)O1,< 104 nM
5,CCCCC(=O)NC(c1ccc(C(C)C)cc1)c1ccc2cccnc2c1O (configuration not stated),6420 nM
6,CCOC(=O)c1c(CSC(=N)N)n(-c2ccc(C)cc2)c2cc(Br)c(OC(C)=O)cc12,> 13300 nM (inactive)
7,COCCCN=C1NN=C(c2cc(C)n(Cc3ccco3)c2C)CS1,< 104 nM
8,CCOC(=O)/C(=C\c1ccc([N+](=O)[O-])cc1)C(=O)c1cc(C(C)=O)c(Nc2ccccc2)s1,958 nM
9,Cc1ccc(/C=N/NC(=O)c2cc(-c3ccncc3)nc3ccccc23)o1,685 nM
10,CC1(C)C[C@H]2C=C(C=O)[C@]3(C=O)C[C@]3(C)[C@H]2C1,580 nM
11,CCCN1C=CC(=C2C(=O)c3ccccc3C2=O)C=C1,> 13300 nM (inactive)
12,C/C(=N\NC(=O)c1ccc(F)cc1)c1ccccn1,491 nM
13,COC(=O)c1[nH]c2c(c1C)C(=O)CC(c1cccs1)C2 (configuration not stated),152 nM
14,COc1ccc2c(C)nc(Nc3nc(-c4ccccc4)cc(=O)[nH]3)nc2c1,1200 nM
15,COc1cccc(C(=O)N/N=C(/c2ccccc2)c2ccccn2)c1,821 nM
16,N=c1c2c(-c3ccccc3)c(-c3ccccc3)n(Cc3ccco3)c2ncn1CCCn1ccnc1,1270 nM
17,CCOc1ccc(OCc2cccc(C(=O)O)c2)cc1,> 13300 nM (inactive)
18,Cn1cccc1/C=C1\SC(=Nc2ccc(O)cc2)NC1=O,< 104 nM
19,CN(C)CCCNc1c2ccccc2nc2ccccc12,506 nM
20,FC(F)(F)c1nnc2c(Sc3ccc(Cl)cc3)nc3ccccc3n12,531 nM
21,CN1C/C(=C/c2ccncc2)C(=O)/C(=C/c2ccncc2)C1,555 nM
